Key:
PLK1 = PLK1 position in the cell (r-tubulin, PLK1, DAPI staining); format: cell-based; settings: middle stage of cell division
[1] = test system: NCAPG2 in HEK293 cell line; assay: Staining of NCAPG2 in chromosome arm and kinetochore; format: cell-based; settings: HEK293, 50 uM, 24 hours, compared to the control
[2] = test system: HepG2 orthotopic xenograft; assay: Liver cancer orthotopic xenograft model (HepG2), 19 injections; format: in vivo, BalB/c nude mice; settings: M2 9.1 mg/kg
Protocol: 5×10^6 HepG2 cells, which are a hepatocellular carcinoma cell line, were injected into the back skin of BalB/c nude mice, and when a sufficient cancer tissue was formed about 3 weeks later, the tissue was removed, uniformly cut into 1 mm^3, and transplanted into the right median lobe of the liver by excising the abdomen within 1 cm.
The doses of 9.1 mg/kg of M2 and 1 mg/kg of BI2536 were selected based on the present inventor's previous in vitro experiments on HCC cells. Administration began 7 days after cell injection, and an equivalent amount of DMSO for the highest concentration of drug was used as a solvent control for each experiment. Each drug was injected a total of 19 injections based on 5 times/week.

HepG2 cell = assay: Apoptosis by annexin V-FITC / PI flow cytometry; format: cell-based; settings: HepG2, 3 days; M2 20 or 100 μM; BI2536 20 or 100 nM
Protocol: To analyze the pattern of apoptosis by exposure to M2, HepG2 cell, a hepatocellular carcinoma cell line, were treated with 20 or 100 μM M2 and 20 or 100 nM BI2536 for 3 days. The apoptosis was detected by annexin V-fluorescein isothiocyanate (annexin V-FITC) and propidium iodide (PI) staining of necrotic and apoptosis cells. First, cells were harvested and washed once with PBS. The cells were then resuspended in a 100 μl binding buffer containing 4 μl of Annexin V (BD, 51-65874X) and PI (BD, 51-66211E). The cells were stained at 37° C. for 15 minutes in the dark and then analyzed using FACSan (BD, San Jose, Calif.). Data was analyzed using CELLQuest software (BD).

[3] = test system: SNU449 human liver cancer cells; assay: Reactivity of M2 variants in SNU449; format: cell-based
Protocol: (§1) To examine the ability of the compound to inhibit the growth of the breast cancer cell line, the compounds was treated at each indicated μM concentration 1 and 3 days after cell attachment, and the control was treated with a 0.1% solvent (DMSO). After another two days, the cell lines that were attached to the culture plate and grew were rinsed with 1×PBS and treated with 4% paraformaldehyde at room temperature for 10 minutes to fix the cells. Then, after cells were rinsed twice with PBS, the fixed cells were treated with a 0.5% Triton X-100 solution and reacted at room temperature for 15 minutes, rinsed another three times with PBS, and then treated with a DAPI reagent at 0.5 μg/ml, and reacted at 37° C. for 10 minutes to stain the cell nuclei. After the cells were additionally rinsed once with PBS, cells stained with DAPI were photographed by Cytation 3, and the resulting images were analyzed with Gen5 software (Biotek, USA). Meanwhile, cells that grew in a floating manner without being attached to the culture plate were treated with a 4% paraformaldehyde solution, reacted at room temperature for 10 minutes to fix the cells, and then photographed in a bright field by Cytation3, and the resulting images were analyzed by Gen5 software (Biotek, USA).
(§2) To analyze the ability to inhibit the growth of liver cancer cell lines, 6.6×10^3 HepG2 cells per well, 1×10^3 cells of each of Hep3B, SNU-475, and SNU-449 per well, and 2×10^3 SNU-387 cells per well were aliquoted in a 96-well plate, cultured in the same manner as described above, treated with Compound 2 (M2), Compound 3 (M4), Compound 4 (M21), Compound 5 (M23), and Compound 6 (M25), and then the ability to inhibit the growth of cells was analyzed.

SNU-449 = assay: Cell cycle by flow cytometry, phospho-histone H3 (Ser10) staining; format: cell-based; settings: M2 20, 40, 80 μM, BI2536 20 nM
Protocol: Flow cytometry equipment was used to confirm the effect on the cell cycle in the case of treatment with Compound 2 (M2). SNU-449, which is one of the liver cancer cell lines, were treated with Compound 2 (M2) at each of concentrations of 20, 40, and 80 μM after 1 day and 3 days, and were harvested after another 2 days.
Furthermore, it was intended to more specifically stain a cell population that stopped in the metaphase of cell division using a phospho-histone H3 (Ser10) antibody capable of specifically staining only the cells that stopped in the metaphase of cell division. As a positive control, cells were treated with BI2536 known as a PLK1 kinase inhibitor at 20 nM and used to observe cells in the metaphase of cell division and an increase in the G2/M phase.

[4] = test system: JIMT1 human breast cancer cells; assay: Cancer cell growth inhibition, M2 variants in JIMT1; format: cell-based
Protocol: as §1

HepG2 cells = assay: Cell viability after treatment (Hoechst 33342); format: cell-based; settings: HepG2, various concentrations, two treatments 48 hours apart
Protocol: HepG2 cells, a hepatocellular carcinoma cell line, were plated with 4 to 6 replications at each hit compound concentration in a 96-well microtiter plate supplemented with a culture medium. The hit compound dissolved in DMSO was added the next day according to the design of experiments, and the number of seeded cells was determined by the cell density reaching 80% on the final day of the protocol treated as a cell control. After 24 hours of cell seeding, cells were treated with hit compounds (M2 and BI2536) at various concentrations, and 48 hours after primary treatment, the medium was aspirated and then secondary treatment was performed. After 48 hours, cell nuclei were visualized by 2.5 μM Hoechst 33342 staining at 37° C. for 30 minutes, then the medium was aspirated and washed with a fresh medium. The plate was read using Cytation™ 3 (BioTek, USA), the cell viability was analyzed, and the results were presented as a relative percentage of viable cells after treatment with the hit compound compared to the control treatment.

[5] = test system: HepG2 human liver cancer cells; assay: Reactivity of M2 variants in HepG2; format: cell-based
Protocol: as §1, §2

Cn1c2nc(=O)[nH]c(=O)c-2nc2ccccc21 [Compound 2, 10-methyl-2H,3H,4H,10H-benzo[g]pteridine-2,4-dione]
position of PLK1 (PLK1): difficult for PLK1 to be located in a normal position | r-tubulin located in the centrosome (staining / position) (PLK1): weakly stained | degree of staining of NCAPG2 in the chromosome arm and kinetochore [1]: reduced | progression of the HCC xenograft calculated by the growth inhibition index ([2]; BI2536 1 mg/kg, 19 injections): suppressed the progression of the HCC xenograft | growth of tumor cells (macroscopic morphology, MRI) ([2]; BI2536 1 mg/kg, 19 injections, 5 times/week): the growth of tumor cells was suppressed | mitotic index ([2]; histological staining, compared to the control): decreased | apoptosis cells (HepG2 cell): apoptosis cells were increased | apoptosis with increasing dose (HepG2 cell): apoptosis was increased in a dose-dependent manner | number of cancer cells [3]: the number of cancer cells was remarkably reduced in a dose-dependent manner | proportion of polyploid cells (SNU-449): not increased at all the treated concentrations | proportion of phospho-histone H3-positive cells (SNU-449; compared to CT): decreased | number of cancer cells [4]: remarkably reduced the number of cancer cells in a dose-dependent manner | cell viability (HepG2 cells): the relatively less the cell viability became | areas of liver cancer cells [5]: remarkably reduced in a dose-dependent manner
